Data: PubChem BioAssay AID1963986 (Molecular Pharmacology Branch, DTP, NCI, 2024)

System: 171881-019-R-J1-PDC tumor spheroid viability
Test: Anticancer human tumor 171881-019-R-J1-PDC patient-derived invasive breast carcinoma cell line growth inhibition [PI3K]
Settings: spheroids with HUVEC and MSC; for IC50: curve of first compound; for viability, T/C: stronger effect = lower value
Text: Combinatorial screen of targeted agents with the PI3K inhibitors inavolisib, alpelisib, duvelisib, and copanlisib in multi-cell type tumor spheroids
A high-throughput screen of multi-cell type tumor spheroids was designed to identify active combinations of targeted small molecules and PI3K pathway inhibitors. Complex spheroids include a stromal component modeled by human endothelial cells (HUVEC) and fibroblasts modeled by human mesenchymal stem cells (MSCs). The concentration ranges selected for each drug and investigational agent were based upon clinically achievable concentrations if the clinical Cmax of the agent was known.
Compounds. The drugs and investigational agents: inavolisib (NSC800729), alpelisib (NSC765974), duvelisib (NSC772469), copanlisib (NSC816437), ipatasertib (NSC767898), afuresertib (NSC778305), talazoparib (NSC767125), sapanisertib (NSC764658), selumetinib (NSC741078), tovorafenib (DAY101, NSC766906), vemurafenib (NSC761431), ravoxertinib (NSC781343), sotorasib (NSC818433), MRTX1133 (NSC 836407), abemaciclib (NSC 768073), palbociclib (NSC758247), venetoclax (NSC 766270), SY5609 (NSC837396), enzalutamide (NSC755605), and darolutamide (NSC825331), were obtained from the National Cancer Institute (NCI) Developmental Therapeutics Program Chemical Repository. The FDA-approved anticancer drug set is available from the NCI Developmental Therapeutics Program. […] The stock solutions were prepared in dimethyl sulfoxide (DMSO, Sigma-Aldrich, St. Louis, MO, cat. D2650) at 800-fold the tested concentration and stored at -70 degrees C prior to their use. All drugs and investigational agents were tested over a range starting from a high concentration at or near the clinical Cmax and decreasing in half-log increments. If the clinical Cmax for an agent had not been determined, the highest concentration tested was 10 microM.
Cell Culture. All cells were maintained in an incubator at 37 degrees C and 5% CO2 with 95% humidity. The PDC lines were cultured according to standard operating procedures established by the NCI PDMR (https://pdmr.cancer.gov/sops/default.htm). All PDCs were thawed and cultured in Matrigel-coated flasks prepared with a working solution of 1X Ham's F-12 nutrient mix, without supplementation (Invitrogen, Waltham, MA, cat. 11765054), 100 U/mL penicillin-streptomycin (Invitrogen, cat. 15140122), and 2.5% Matrigel (Corning Inc., Corning, NY, cat. 354248) for the first three passages. The 354836-022-R-J1-PDC, 475296-252-R-J1-PDC, and 997726-040-R-J2-PDC lines were cultured in 6A media, which includes advanced DMEM/F-12 (Thermo Fisher Scientific, cat. 12634028), 10 mM HEPES (Thermo Fisher Scientific, cat. 15630080), 1X GlutaMAX supplement (Thermo Fisher Scientific, cat. 35050061), 0.1 mg/mL primocin (InvivoGen, San Diego, CA, cat. ant-pm-2), 10% defined fetal bovine serum, heat inactivated (HyClone Laboratories Inc., Logan, UT, cat. SH30070.03HI), 50% L-WRN conditioned media (ATCC, cat. CRL-3276), 1.25 mM N-Acetyl-L-cysteine (Sigma-Aldrich, cat. A9165), 10 mM nicotinamide (Sigma-Aldrich, cat. N0636), 1X B-27 supplement (Thermo Fisher Scientific, cat. 17504044), 1X N-2 supplement (Thermo Fisher Scientific, cat. 17502048), and 10 microM Y-27632 dihydrochloride (Tocris Bioscience, Bristol, United Kingdom, cat. 1254). The 624824-186-R-J2-PDC line was cultured in 6C/Colon 1B media, which includes all 6A media components plus 50 ng/mL human EGF recombinant protein (Thermo Fisher Scientific, cat. PHG0311). […]
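Also: spheroids exposed to compound for 7 days before viability read.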
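For viability, T/C in this document: 100% = DMSO vehicle-treated spheroids.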

What does the source list for `CC(=O)c1c(C)c2cnc(Nc3ccc(N4CCNCC4)cn3)nc2n(C2CCCC2)c1=O` + CC(Nc1ccc2c(c1)OCCn1cc(N3C(=O)OCC3C(F)F)nc1-2)C(N)=O?
IC50 (second compound 0.00316 µM): > 100 nM; IC50 (second compound 0.01 µM): > 100 nM; IC50 (second compound 0.0316 µM): > 100 nM; IC50 (second compound 0.1 µM): < 0.316 nM; IC50 (second compound 0.316 µM): < 0.316 nM; IC50 (second compound 1 µM): < 0.316 nM; viability, T/C (second compound 0.00316 µM, first compound 0.000316 µM): 85.7%; viability, T/C (second compound 0.00316 µM, first compound 0.001 µM): 85.3%; viability, T/C (second compound 0.00316 µM, first compound 0.00316 µM): 94.5%; viability, T/C (second compound 0.00316 µM, first compound 0.01 µM): 95.2%; viability, T/C (second compound 0.00316 µM, first compound 0.0316 µM): 100%; viability, T/C (second compound 0.00316 µM, first compound 0.1 µM): 86.7%; viability, T/C (second compound 0.01 µM, first compound 0.000316 µM): 74.2%; viability, T/C (second compound 0.01 µM, first compound 0.001 µM): 82.3%; viability, T/C (second compound 0.01 µM, first compound 0.00316 µM): 78.5%; viability, T/C (second compound 0.01 µM, first compound 0.01 µM): 85.9%; viability, T/C (second compound 0.01 µM, first compound 0.0316 µM): 89.2%; viability, T/C (second compound 0.01 µM, first compound 0.1 µM): 73%; viability, T/C (second compound 0.0316 µM, first compound 0.000316 µM): 50.3%; viability, T/C (second compound 0.0316 µM, first compound 0.001 µM): 58.7%; viability, T/C (second compound 0.0316 µM, first compound 0.00316 µM): 53.9%; viability, T/C (second compound 0.0316 µM, first compound 0.01 µM): 49.1%; viability, T/C (second compound 0.0316 µM, first compound 0.0316 µM): 64.5%; viability, T/C (second compound 0.0316 µM, first compound 0.1 µM): 58.6%; viability, T/C (second compound 0.1 µM, first compound 0.000316 µM): 40.4%; viability, T/C (second compound 0.1 µM, first compound 0.001 µM): 42.6%; viability, T/C (second compound 0.1 µM, first compound 0.00316 µM): 42%; viability, T/C (second compound 0.1 µM, first compound 0.01 µM): 44.3%; viability, T/C (second compound 0.1 µM, first compound 0.0316 µM): 47.7%; viability, T/C (second compound 0.1 µM, first compound 0.1 µM): 42.1%; viability, T/C (second compound 0.316 µM, first compound 0.000316 µM): 26.7%; viability, T/C (second compound 0.316 µM, first compound 0.001 µM): 27%; viability, T/C (second compound 0.316 µM, first compound 0.00316 µM): 28%; viability, T/C (second compound 0.316 µM, first compound 0.01 µM): 28%; viability, T/C (second compound 0.316 µM, first compound 0.0316 µM): 30.8%; viability, T/C (second compound 0.316 µM, first compound 0.1 µM): 29%; viability, T/C (second compound 1 µM, first compound 0.000316 µM): 20.4%; viability, T/C (second compound 1 µM, first compound 0.001 µM): 20.4%; viability, T/C (second compound 1 µM, first compound 0.00316 µM): 24.1%; viability, T/C (second compound 1 µM, first compound 0.01 µM): 24.2%; viability, T/C (second compound 1 µM, first compound 0.0316 µM): 27.8%; viability, T/C (second compound 1 µM, first compound 0.1 µM): 25.9%
